Calls of active or inactive are those of the source. No cut-off for these calls is given here.
Assays:
Jurkat [1] = assay: Cytotoxic activity against Jurkat cells upto 500 ug/mL by MTT assay; assay type: functional, cell-based; details: Homo sapiens
Jurkat [2] = assay: Inhibition of anti-CD3 plus anti-CD28-induced IL2 secretion in Jurkat cells; assay type: functional, Homo sapiens
Jurkat [3] = assay: Inhibition of PMA plus ionomycin-induced IL2 secretion in Jurkat cells; assay type: functional, cell-based; details: Homo sapiens

Compound: O=C(/C=C/c1ccc(O)c(O)c1)O[C@@H]1C[C@@](OC(=O)/C=C/c2ccc(O)c(O)c2)(C(=O)O)C[C@@H](O)[C@@H]1O [CYNARIN]
- Activity (Jurkat [1]): Non-toxic
- Inhibition (Jurkat [2]): -53%
- Activity (Jurkat [3]): inactive

Reference: ChEMBL document CHEMBL1138157, “Immuno-suppressive effect of blocking the CD28 signaling pathway in T-cells by an active component of Echinacea found by a novel pharmaceutical screening method” (2006)
